# According to PubChem BioAssay (NCI):
#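 48-hour exposure; five concentrations; linearly interpolated endpoints. Definition used: TGI = concentration required for complete inhibition of growth.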
# Columns and labels:
# Experiment in all cases: inhibition of tumour cell growth, NCI panel, 48 h
# 786-0 renal = system: 786-0 renal
# A498 renal = system: A498 renal
# A549 NSCLC = system: A549 NSCLC
# ACHN renal = system: ACHN renal
# BT-549 breast = system: BT-549 breast
# CAKI-1 renal = system: CAKI-1 renal
# CCRF-CEM leukemia = system: CCRF-CEM leukemia
# COLO 205 colon = system: COLO 205 colon
# DU-145 prostate = system: DU-145 prostate
# EKVX NSCLC = system: EKVX NSCLC
# HCC-2998 colon = system: HCC-2998 colon
# HCT-116 colon = system: HCT-116 colon
# HCT-15 colon = system: HCT-15 colon
# HL-60(TB) leukemia = system: HL-60(TB) leukemia
# HOP-62 NSCLC = system: HOP-62 NSCLC
# HOP-92 NSCLC = system: HOP-92 NSCLC
# HS 578T breast = system: HS 578T breast
# HT29 colon = system: HT29 colon
# IGROV1 ovarian = system: IGROV1 ovarian
# K-562 leukemia = system: K-562 leukemia
# KM12 colon = system: KM12 colon
# LOX IMVI melanoma = system: LOX IMVI melanoma
# M14 melanoma = system: M14 melanoma
# MCF7 breast = system: MCF7 breast
# MDA-MB-231 breast = system: MDA-MB-231 breast
# MDA-MB-435 = system: MDA-MB-435
# MDA-N = system: MDA-N
# MOLT-4 leukemia = system: MOLT-4 leukemia
# NCI-H226 lung = system: NCI-H226 lung
# NCI-H23 lung = system: NCI-H23 lung
# NCI-H460 lung = system: NCI-H460 lung
# NCI-H522 lung = system: NCI-H522 lung
# NCI/ADR-RES ovarian = system: NCI/ADR-RES ovarian
# OVCAR-3 ovarian = system: OVCAR-3 ovarian
# OVCAR-4 ovarian = system: OVCAR-4 ovarian
# OVCAR-5 ovarian = system: OVCAR-5 ovarian
# OVCAR-8 ovarian = system: OVCAR-8 ovarian
# PC-3 prostate = system: PC-3 prostate
# RXF 393 renal = system: RXF 393 renal
# SF-268 CNS = system: SF-268 CNS
# SF-295 CNS = system: SF-295 CNS
# SF-539 CNS = system: SF-539 CNS
# SK-MEL-2 melanoma = system: SK-MEL-2 melanoma
# SK-MEL-28 melanoma = system: SK-MEL-28 melanoma
# SK-MEL-5 melanoma = system: SK-MEL-5 melanoma
# SK-OV-3 ovarian = system: SK-OV-3 ovarian
# SN12C renal = system: SN12C renal
# SNB-19 CNS = system: SNB-19 CNS
# SR leukemia = system: SR leukemia
# SW-620 colon = system: SW-620 colon
# T-47D breast = system: T-47D breast
# TK-10 renal = system: TK-10 renal
# U251 CNS = system: U251 CNS
# UACC-257 melanoma = system: UACC-257 melanoma
# UACC-62 melanoma = system: UACC-62 melanoma
# UO-31 renal = system: UO-31 renal
# MALME-3M melanoma = system: MALME-3M melanoma
# RPMI-8226 leukemia = system: RPMI-8226 leukemia
# SNB-75 CNS = system: SNB-75 CNS
compound,measurement,setting,value
CN1C(NN)=NS(=O)(=O)c2ccccc21,TGI,786-0 renal,> 100 µM
same,TGI,A498 renal,> 100 µM
same,TGI,A549 NSCLC,> 100 µM
same,TGI,ACHN renal,> 100 µM
same,TGI,BT-549 breast,> 100 µM
same,TGI,CAKI-1 renal,> 100 µM
same,TGI,CCRF-CEM leukemia,> 100 µM
same,TGI,COLO 205 colon,> 100 µM
same,TGI,DU-145 prostate,> 100 µM
same,TGI,EKVX NSCLC,> 100 µM
same,TGI,HCC-2998 colon,> 100 µM
same,TGI,HCT-116 colon,> 100 µM
same,TGI,HCT-15 colon,> 100 µM
same,TGI,HL-60(TB) leukemia,> 100 µM
same,TGI,HOP-62 NSCLC,> 100 µM
same,TGI,HOP-92 NSCLC,> 100 µM
same,TGI,HS 578T breast,> 100 µM
same,TGI,HT29 colon,> 100 µM
same,TGI,IGROV1 ovarian,> 100 µM
same,TGI,K-562 leukemia,> 100 µM
same,TGI,KM12 colon,> 100 µM
same,TGI,LOX IMVI melanoma,> 100 µM
same,TGI,M14 melanoma,> 100 µM
same,TGI,MCF7 breast,> 100 µM
same,TGI,MDA-MB-231 breast,> 100 µM
same,TGI,MDA-MB-435,> 100 µM
same,TGI,MDA-N,> 100 µM
same,TGI,MOLT-4 leukemia,> 100 µM
same,TGI,NCI-H226 lung,> 100 µM
same,TGI,NCI-H23 lung,> 100 µM
same,TGI,NCI-H460 lung,> 100 µM
same,TGI,NCI-H522 lung,> 100 µM
same,TGI,NCI/ADR-RES ovarian,> 100 µM
same,TGI,OVCAR-3 ovarian,> 100 µM
same,TGI,OVCAR-4 ovarian,> 100 µM
same,TGI,OVCAR-5 ovarian,> 100 µM
same,TGI,OVCAR-8 ovarian,> 100 µM
same,TGI,PC-3 prostate,> 100 µM
same,TGI,RXF 393 renal,> 100 µM
same,TGI,SF-268 CNS,> 100 µM
same,TGI,SF-295 CNS,> 100 µM
same,TGI,SF-539 CNS,> 100 µM
same,TGI,SK-MEL-2 melanoma,> 100 µM
same,TGI,SK-MEL-28 melanoma,> 100 µM
same,TGI,SK-MEL-5 melanoma,> 100 µM
same,TGI,SK-OV-3 ovarian,> 100 µM
same,TGI,SN12C renal,> 100 µM
same,TGI,SNB-19 CNS,> 100 µM
same,TGI,SR leukemia,> 100 µM
same,TGI,SW-620 colon,> 100 µM
same,TGI,T-47D breast,> 100 µM
same,TGI,TK-10 renal,> 100 µM
same,TGI,U251 CNS,> 100 µM
same,TGI,UACC-257 melanoma,> 100 µM
same,TGI,UACC-62 melanoma,> 100 µM
same,TGI,UO-31 renal,> 100 µM
CC(=O)Oc1ccc2c(c1OC(C)=O)CCC1C2=CC[C@]2(C)C(=O)CCC12 (some centres not stated),TGI,A549 NSCLC,33.7 µM
same,TGI,ACHN renal,24.3 µM
same,TGI,BT-549 breast,30.7 µM
same,TGI,CAKI-1 renal,19 µM
same,TGI,CCRF-CEM leukemia,12.9 µM
same,TGI,COLO 205 colon,27.7 µM
same,TGI,DU-145 prostate,30.1 µM
same,TGI,EKVX NSCLC,30.1 µM
same,TGI,HCT-116 colon,18.5 µM
same,TGI,HCT-15 colon,23.5 µM
same,TGI,HL-60(TB) leukemia,27.5 µM
same,TGI,HOP-62 NSCLC,53.7 µM
same,TGI,HOP-92 NSCLC,22.4 µM
same,TGI,HS 578T breast,62.5 µM
same,TGI,HT29 colon,32.9 µM
same,TGI,IGROV1 ovarian,18.8 µM
same,TGI,K-562 leukemia,39.5 µM
same,TGI,KM12 colon,33.3 µM
same,TGI,M14 melanoma,26.1 µM
same,TGI,MALME-3M melanoma,28.6 µM
same,TGI,MCF7 breast,31.2 µM
same,TGI,MDA-MB-231 breast,28.3 µM
same,TGI,MDA-MB-435,18.2 µM
same,TGI,MDA-N,33.4 µM
same,TGI,MOLT-4 leukemia,19.4 µM
same,TGI,NCI-H23 lung,46.9 µM
same,TGI,NCI-H460 lung,40.3 µM
same,TGI,NCI-H522 lung,5.01 µM
same,TGI,NCI/ADR-RES ovarian,> 100 µM
same,TGI,OVCAR-3 ovarian,6.2 µM
same,TGI,OVCAR-4 ovarian,15.9 µM
same,TGI,OVCAR-5 ovarian,30.3 µM
same,TGI,OVCAR-8 ovarian,27.7 µM
same,TGI,PC-3 prostate,17.3 µM
same,TGI,RPMI-8226 leukemia,8.41 µM
same,TGI,SF-268 CNS,27.9 µM
same,TGI,SF-295 CNS,29.7 µM
same,TGI,SF-539 CNS,29.1 µM
same,TGI,SK-MEL-2 melanoma,29.5 µM
same,TGI,SK-MEL-28 melanoma,21.3 µM
same,TGI,SK-MEL-5 melanoma,1.55 µM
same,TGI,SK-OV-3 ovarian,87.4 µM
same,TGI,SN12C renal,28.1 µM
same,TGI,SNB-19 CNS,32.8 µM
same,TGI,SR leukemia,32.9 µM
same,TGI,SW-620 colon,14.5 µM
same,TGI,T-47D breast,37.6 µM
same,TGI,TK-10 renal,27.7 µM
same,TGI,UACC-257 melanoma,68.8 µM
same,TGI,UACC-62 melanoma,25.5 µM
same,TGI,UO-31 renal,21.7 µM
NC(=O)NN=C1C[C@H]2CCCC[C@H]2C1,TGI,786-0 renal,> 100 µM
same,TGI,A498 renal,> 100 µM
same,TGI,A549 NSCLC,> 100 µM
same,TGI,ACHN renal,> 100 µM
same,TGI,BT-549 breast,> 100 µM
same,TGI,CAKI-1 renal,> 100 µM
same,TGI,COLO 205 colon,> 100 µM
same,TGI,DU-145 prostate,> 100 µM
same,TGI,EKVX NSCLC,> 100 µM
same,TGI,HCC-2998 colon,> 100 µM
same,TGI,HCT-116 colon,> 100 µM
same,TGI,HCT-15 colon,> 100 µM
same,TGI,HL-60(TB) leukemia,> 100 µM
same,TGI,HOP-62 NSCLC,> 100 µM
same,TGI,HOP-92 NSCLC,> 100 µM
same,TGI,HS 578T breast,> 100 µM
same,TGI,HT29 colon,> 100 µM
same,TGI,IGROV1 ovarian,> 100 µM
same,TGI,K-562 leukemia,> 100 µM
same,TGI,KM12 colon,> 100 µM
same,TGI,LOX IMVI melanoma,> 100 µM
same,TGI,M14 melanoma,> 100 µM
same,TGI,MCF7 breast,> 100 µM
same,TGI,MDA-MB-231 breast,> 100 µM
same,TGI,MDA-MB-435,> 100 µM
same,TGI,MDA-N,> 100 µM
same,TGI,MOLT-4 leukemia,> 100 µM
same,TGI,NCI-H226 lung,> 100 µM
same,TGI,NCI-H460 lung,> 100 µM
same,TGI,NCI-H522 lung,> 100 µM
same,TGI,NCI/ADR-RES ovarian,> 100 µM
same,TGI,OVCAR-3 ovarian,> 100 µM
same,TGI,OVCAR-4 ovarian,> 100 µM
same,TGI,OVCAR-5 ovarian,> 100 µM
same,TGI,OVCAR-8 ovarian,> 100 µM
same,TGI,PC-3 prostate,> 100 µM
same,TGI,RPMI-8226 leukemia,> 100 µM
same,TGI,SF-268 CNS,> 100 µM
same,TGI,SF-295 CNS,> 100 µM
same,TGI,SF-539 CNS,> 100 µM
same,TGI,SK-MEL-2 melanoma,> 100 µM
same,TGI,SK-MEL-28 melanoma,> 100 µM
same,TGI,SK-MEL-5 melanoma,> 100 µM
same,TGI,SK-OV-3 ovarian,> 100 µM
same,TGI,SN12C renal,> 100 µM
same,TGI,SNB-19 CNS,> 100 µM
same,TGI,SNB-75 CNS,> 100 µM
same,TGI,SR leukemia,> 100 µM
same,TGI,SW-620 colon,> 100 µM
same,TGI,T-47D breast,> 100 µM
same,TGI,TK-10 renal,> 100 µM
same,TGI,U251 CNS,> 100 µM
same,TGI,UACC-257 melanoma,> 100 µM
same,TGI,UACC-62 melanoma,> 100 µM
same,TGI,UO-31 renal,> 100 µM
